{"source": "patent US20230226047A1", "about": "“COMBINATION THERAPY FOR TREATMENT OF CANCERS” (Health Research, Inc., priority 2019, published 2023)", "key": {"C42 cells": {"tested_on": "C42 cells", "experiment": "Flow cytometry of MHC expression after MCTP-39 and IFNg treatment, human C42 cells", "format": "cell-based", "conditions": "combined treatment with MCTP-39 and IFNg, FIG. 7A", "procedure": "(§1) Cell proliferation: Knock down of WHSC1 in C4-2 and TRAMP C-2 cells is discussed in previous sections. Cells were counted at 48, 96 and 144 hours. For pharmacological inhibition, cells either C4-2 or TRAMP C2 were seeded overnight at 4×10^3 cells per 100 μl media in a 96 well plate, the following day cells were treated with vehicle control or different concentrations of MCTP-39 (0-10 μM) for 48 hours. After 48 hours, C4-2 or TRAMP C-2 cells were either counted or used for staining with MHCI/II antibodies. Briefly cells were detached using trypsin and washed with FACS buffer for 5 minutes at 300 g. The pellet was resuspended in FACS buffer and stained with MHC-I/II antibodies for 20 minutes at 4 C. After incubation, cells were washed with FACS buffer 2× and resuspended in 200 μl of FACS buffer before acquiring the data on a flow cytometer."}, "TRAMP C2 cells": {"tested_on": "TRAMP C2 cells", "experiment": "Flow cytometry of MHC expression after MCTP-39 and IFNg treatment, murine TRAMP C2 cells", "format": "cell-based", "conditions": "combined treatment with MCTP-39 and IFNg, FIG. 7B", "procedure": "as §1"}, "[1]": {"tested_on": "OVA-overexpressing TRAMP C2 cells", "experiment": "Flow cytometry of antigen-bound MHC (OVA-bound H2Kb)", "format": "cell-based, murine", "conditions": "48 hours, FIG. 7C-D", "description": "OVA overexpression: Soluble ovalbumin (OVA) gene, which was amplified from pCI-neo-sOVA (Addgene plasmid 25098), and monomeric enhanced green fluorescent protein (mEGFP) gene, which was amplified from mEGFP-N1 (Addgene plasmid 54767), were genetically fused via P2A translational skipping sequence and cloned in the Sleeping Beauty transposon plasmid with the human elongation factor 1α promoter. This plasmid, pT2-EF-OVA-mEGFP, was electroporated together with the Sleeping Beauty Transposase plasmid, pCMV(CAT)T7-SB100 (a gift from Zsuzsanna Izsvak; Addgene plasmid #34879), into TRAMP-C2 by Nucleofector 4D instrument. The electroporated cells were kept in maintenance medium (DMEM supplemented with 10% FBS, 0.005 mg/ml bovine insulin, 1 nM DHT and cell sorted based on mGFP expression using FACS Aria I cell sorter. The expression of OVA on sorted cells were confirmed by western blotting using rabbit polyclonal OVA antibody (ab186717) at 1:4000 dilution and flow cytometry using PE anti-mouse H-2K^b bound to SIINFEKL (BioLegend) before incubating with or without MCTP-39 for 48 hours. The expression of OVA was analyzed after 48 hours by flow cytometry using BDLSRIIA cytometer and data was analyzed by FCS express 7 Research Edition."}, "[2]": {"tested_on": "TRAMP C2 cells grafted in C57B/6 mice", "experiment": "TRAMP C2 subcutaneous graft in immunocompetent C57B/6 mice", "format": "in vivo, mouse", "procedure": "(§2) Immunotherapy in prostate cancer (PCa) lags behind the progresses obtained in other cancer types partially because of its limited immune infiltration. While a few studies reported increased homing of immune cells in response to androgen deprivation therapy (ADT), the mechanism by which this occurs is still poorly understood. Using TCGA PCa RNASeq data patients were divided into top/bottom 30% based on the expression of WHSC1 and DFS was calculated for both groups. Publicly available ChIPSeq data were obtained from Cistrome and integrated with the available RNASeq data. RNASeq, ATACSeq and EPIC Infinium MethylArrays were analyzed using R Bioconductor packages comparing C42 cells with or without stable knockdown on WHSC1. Flow cytometry was used to measure MHC levels, MHC-bound OVA and tumor infiltration. C57B6 and NSG mice were subcutaneously grafted with TRAMP C2 cells and treated with MCTP39 (10 mg/kg); tumor size was monitored over time and curves compared using permutation analyses. All analyses use a significance threshold of 0.05.\nMice and in vivo experiments: Male C57B/6J mice (6-8 weeks of age) and NSG mice (10-12 weeks of age) were obtained from the Roswell Park's Center For Immunotherapy breeding colonies. All in vivo experiments were made following institutional and IACUC regulations. In vivo experiments were not blinded. C2 cells (1×10^6 cells/100 μl) were injected subcutaneously into the right flank of male C57BL/6J mice (n=6/group) or NSG mice (n=5/group) using a 27 G needle. Sample size was chosen based on pilot studies and chosen to include the potential loss of mice prior treatment. Tumor volume was monitored weekly with an electronic caliper and calculated as V=(W^2×L)/2, where Vis tumor volume, W is tumor width and L is tumor length. When tumors reached 100 mm^3, mice were randomized prior treatment with either MCTP-39 (10 mg/kg 5×/week/4 weeks) or vehicle control. Mice were euthanized either when tumors reached […] in any dimension, as per Institutional IACUC regulations, when mice show signs of advanced disease or after 4 weeks of treatment. Tumors were harvested and weighted, single cells suspension was prepared using the Tumor dissociation kit (Miltenyi Biotech) as per manufacturing instructions prior flow cytometry analysis.\nFlow cytometry and antibodies: Single cell suspension from tumors was stained the antibodies listed in Table S3 (FIG. 14) for 20 min at 4° C. After staining, cells were washed and fixed with fixation buffer for 15 min at 4° C. followed by washing 2× with FACS buffer. Cells were resuspended in 200 μl of FACS buffer before acquiring data on BDLSR IIA flow cytometer. Data were analyzed using FCS express 7 Research Edition.\nStatistical methods: Survival analysis was performed dividing patients based on the upper/lower 25% of the expression levels of WHSC1, significance, HR and confidence intervals were calculated using cox proportional hazard model available in the R package survival. […] Significance for the AUC analysis was calculated by simulating 10,000 AUCs using randomly selected genes in the RNASeq dataset. The empirical p value was calculated by dividing the number of expected/simulated AUCs higher than our observed value by 10,000 (number of simulations). Significance when comparing two groups was calculated via two-tailed Student's t.test at a significance threshold of 0.05. […]"}, "[3]": {"tested_on": "TRAMP C2 cells grafted in NSG mice", "experiment": "TRAMP C2 subcutaneous graft in immunocompromised NSG mice", "format": "in vivo, mouse", "conditions": "10 mg/kg, four weeks, p=0.1461, permutation test, FIG. 8B", "procedure": "as §2\nMice and in vivo experiments: Male C57B/6J mice (6-8 weeks of age) and NSG mice (10-12 weeks of age) were obtained from the Roswell Park's Center For Immunotherapy breeding colonies. […] Tumor volume was monitored weekly with an electronic caliper and calculated as V=(W^2×L)/2, where Vis tumor volume, W is tumor width and L is tumor length. […]"}, "[4]": {"conditions": "C57B/6 mice, tumors at endpoint, flow cytometry, FIG. 8C"}}, "note": "“Also recorded” adds a separate entry of the source."}
{"smiles": "NNc1nc2ccccc2[nH]c1=S", "note": "[MCTP39]", "values": [{"measurement": "upregulating HLA-B7, HLA-F, HLA-E, HLA-DQ, HLA-DM", "setting": "C42 cells", "value": "additive effect"}, {"measurement": "upregulating murine H2Kb I-A/I-E", "setting": "TRAMP C2 cells", "value": "additive effect"}, {"measurement": "OVA-bound H2Kb fraction", "setting": "[1]", "value": "increased"}, {"measurement": "Tumor growth", "setting": "[2]; C57B/6 mice, 10 mg/kg IP for four weeks, p=0.0023, permutation test, FIG. 8A, 10 mg/kg", "value": "significantly reduced"}, {"measurement": "Tumor weight", "setting": "[2]; C57B/6 mice, at endpoint, FIG. 8C", "value": "reduced"}, {"measurement": "CD8+ T cells infiltration", "setting": "[2]; [4]", "value": "increased"}, {"measurement": "H2Kb (MHC) expression on the tumor", "setting": "[2]; [4]", "value": "increased"}, {"measurement": "intratumoral CD8+PD1+ T cells", "setting": "[2]; preliminary in vivo data", "value": "may increase"}, {"measurement": "Tumor growth", "setting": "[3]", "value": "limited and non-significant effect; also recorded: Not Significant; also recorded: not observed"}]}
